Laboratory results as given in publication PMC6965684, “Characterization of binding, functional activity, and contractile responses of the selective 5‐HT1F receptor agonist lasmiditan” (British Journal of Pharmacology, 2019).
Counter-ions that a name gives are not always drawn. Like-named read-outs stand apart in the source and are kept apart here.

Columns and labels:
5-HT1D receptor [1] = biological target: T1, 5-HT1D receptor (Homo sapiens, UniProt P28221); assay: radioligand competition, CHO-K1 membranes; assay type: binding; settings: read-out: 5-HT1D / pKi (converted)
T1 construct: gene HTR1D; full-length human recombinant receptor in CHO-K1 cells (Ogeda); crude membranes
T1 sequence (P28221 whole entry): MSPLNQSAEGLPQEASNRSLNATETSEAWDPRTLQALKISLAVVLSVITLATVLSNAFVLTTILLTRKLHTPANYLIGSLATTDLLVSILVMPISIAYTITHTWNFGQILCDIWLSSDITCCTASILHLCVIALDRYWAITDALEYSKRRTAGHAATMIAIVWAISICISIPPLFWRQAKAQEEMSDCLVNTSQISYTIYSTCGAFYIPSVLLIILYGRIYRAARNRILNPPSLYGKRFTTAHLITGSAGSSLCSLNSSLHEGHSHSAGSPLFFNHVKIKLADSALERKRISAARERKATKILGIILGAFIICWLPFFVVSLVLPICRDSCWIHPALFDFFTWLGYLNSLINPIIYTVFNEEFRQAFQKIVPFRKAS
From the text: radioligand competition, CHO-K1 membranes on 5-HT1D receptor

5-ht1E receptor [2] = biological target: T2, 5-ht1E receptor (Homo sapiens, UniProt P28566); assay: radioligand competition, CHO-K1 membranes; assay type: binding; settings: read-out: 5-ht1E / pKi (converted)
T2 construct: gene HTR1E; full-length human recombinant receptor in CHO-K1 cells (Ogeda); crude membranes
T2 sequence (P28566 whole entry): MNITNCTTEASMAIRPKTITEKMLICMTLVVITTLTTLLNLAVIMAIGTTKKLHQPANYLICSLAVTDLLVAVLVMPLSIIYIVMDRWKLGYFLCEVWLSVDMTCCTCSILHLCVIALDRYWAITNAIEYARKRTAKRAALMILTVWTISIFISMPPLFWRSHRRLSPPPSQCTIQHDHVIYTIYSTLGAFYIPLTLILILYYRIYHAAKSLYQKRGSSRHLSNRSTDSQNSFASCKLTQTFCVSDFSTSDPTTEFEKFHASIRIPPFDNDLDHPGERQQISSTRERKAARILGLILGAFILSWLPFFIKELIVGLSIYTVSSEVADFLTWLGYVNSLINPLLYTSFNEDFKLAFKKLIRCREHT
From the text: radioligand competition, CHO-K1 membranes on 5-ht1E receptor

5-HT1B receptor [3] = biological target: T3, 5-HT1B receptor (Homo sapiens, UniProt P28222); assay: biochemical; assay type: CHO-K1 membranes; set-up: radioligand competition binding on cell membranes, filtration and TopCount scintillation counting; settings: radioligand displacement; read-out: 5‐HT1B / pIC50 (converted)
T3 construct: gene HTR1B; full-length human recombinant receptor in CHO-K1 cells (Ogeda); crude membranes
T3 sequence (P28222 whole entry): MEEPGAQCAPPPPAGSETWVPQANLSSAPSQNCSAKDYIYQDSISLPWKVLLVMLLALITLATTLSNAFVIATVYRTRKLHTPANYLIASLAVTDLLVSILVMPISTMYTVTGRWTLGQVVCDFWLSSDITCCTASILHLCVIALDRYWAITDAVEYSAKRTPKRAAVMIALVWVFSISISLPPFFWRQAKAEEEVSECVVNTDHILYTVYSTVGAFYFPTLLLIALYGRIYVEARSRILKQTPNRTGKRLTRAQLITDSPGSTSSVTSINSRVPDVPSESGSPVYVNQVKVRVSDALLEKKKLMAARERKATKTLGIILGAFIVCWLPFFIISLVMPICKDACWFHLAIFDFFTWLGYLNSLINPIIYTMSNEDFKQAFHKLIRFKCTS
Procedure: (§1) Competition binding was performed in duplicate in the wells of a 96‐well plate containing binding buffer (optimized for each receptor), cell membrane extracts (approximately 20,000 cells distributed in the 96‐well plate), radiotracer, and test agonist. Non‐specific binding was determined by co‐incubation with 200‐fold excess of competitor. Cells were incubated and exposed to varying concentrations (1 pM to 10 μM) of a range of displacer agonists (see below). The samples were incubated in a final volume of 0.1 ml and then filtered over Unifilter plates (Perkin Elmer, Massachusetts, USA) pretreated for 2 hr to limit tracer non‐specific binding. Filters were washed five times with 0.5 ml of ice‐cold washing buffer (tris 50 mM pH 7.4) and 50 μl of Microscint 20 (Perkin Elmer) were added to each filter. The plates were incubated 15 min at room temperature on an orbital shaker and then counted with a TopCount™ (Perkin Elmer) for 1 min per well. […] Additionally, the reference values obtained were compared to historical values obtained from the same receptor and used to validate the experimental session. […] For the new assays developed in this study (i.e., 5‐ht1E receptor), the two independent pIC50 determined must be concordant with a 1 log unit interval for the assays to be validated.

5-HT1D receptor [4] = biological target: T1, 5-HT1D receptor; assay: biochemical; assay type: CHO-K1 membranes; set-up: radioligand competition binding on cell membranes, filtration and TopCount scintillation counting; settings: radioligand displacement; read-out: 5‐HT1D / pIC50 (converted)
Procedure: as §1

5-HT2B receptor [5] = biological target: T4, 5-HT2B receptor (Homo sapiens, UniProt P41595); assay: biochemical; assay type: CHO-K1 membranes; set-up: radioligand competition binding on cell membranes, filtration and TopCount scintillation counting; settings: radioligand displacement; read-out: 5‐HT2B / pIC50 (converted)
T4 construct: gene HTR2B; full-length human recombinant receptor in CHO-K1 cells (Ogeda); crude membranes
T4 sequence (P41595 whole entry): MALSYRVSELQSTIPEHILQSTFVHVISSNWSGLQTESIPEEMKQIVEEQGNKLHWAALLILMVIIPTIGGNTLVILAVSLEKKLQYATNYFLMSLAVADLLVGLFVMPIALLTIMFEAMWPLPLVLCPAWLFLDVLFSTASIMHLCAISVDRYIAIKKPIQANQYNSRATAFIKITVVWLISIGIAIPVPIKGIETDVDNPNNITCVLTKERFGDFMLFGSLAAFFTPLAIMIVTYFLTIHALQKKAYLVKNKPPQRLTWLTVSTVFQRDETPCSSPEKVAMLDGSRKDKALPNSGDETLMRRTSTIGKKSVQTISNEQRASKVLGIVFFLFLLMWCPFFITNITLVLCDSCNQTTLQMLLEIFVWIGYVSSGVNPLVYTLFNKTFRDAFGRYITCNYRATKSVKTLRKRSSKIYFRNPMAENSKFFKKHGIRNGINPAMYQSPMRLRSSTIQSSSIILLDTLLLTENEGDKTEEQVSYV
Procedure: as §1

5-ht1E receptor [6] = biological target: T2, 5-ht1E receptor; assay: biochemical; assay type: CHO-K1 membranes; set-up: radioligand competition binding on cell membranes, filtration and TopCount scintillation counting; settings: radioligand displacement; read-out: 5‐ht1E / pIC50 (converted)
Procedure: as §1

5-HT1B receptor [7] = biological target: T3, 5-HT1B receptor; assay: cell-based; set-up: species or system CHO-K1; cAMP HTRF agonist assay, Gi coupled receptors, inhibition of stimulated cAMP
Procedure: (§2) Concentration–response curves were performed in parallel with the agonists. […] After addition of the lysis buffer and 1‐hr incubation, cAMP concentrations were estimated according to the manufacturer specification with the HTRF kit (Cisbio International, Codelet, France). In brief, increasing concentrations of agonists were added to stably transfected cells in buffer in an Optiplate (PerkinElmer Life Sciences, Massachusetts, USA). The plates were incubated, and cells were then lysed by the addition of HTRF reagents (cAMP‐Cryptate and anti‐cAMP‐d2 reagents) and diluted in lysis buffer, followed by incubation at room temperature. […] Additionally, the reference values obtained were compared to historical values obtained from the same receptor and used to validate the experimental session. […] For the new assays developed in this study (i.e., 5‐ht1E receptor), the two independent pIC50 determined must be concordant with a 1 log unit interval for the assays to be validated.

5-ht1E receptor [8] = biological target: T2, 5-ht1E receptor; assay: cell-based; set-up: species or system CHO-K1; cAMP HTRF agonist assay, Gi coupled receptors, inhibition of stimulated cAMP; settings: cAMP
Procedure: as §2

5-HT2B receptor [9] = biological target: T4, 5-HT2B receptor; assay: cell-based; set-up: species or system CHO-K1; IPOne HTRF agonist assay, IP1 accumulation in adherent transfected cells
Procedure: The assay was performed on adherent cells. For agonist testing, the medium was removed and 20 μl of assay buffer plus 20 μl of the studied agonist or the reference agonist were added in each well. The plate was incubated for 60 min at 37°C with 5% CO2. IP1‐D2 reagent and anti‐IP1 cryptate reagents were dispensed in the wells, and IP1 concentrations were then measured following the manufacturer instructions (IPOne HTRF assay kit; Cisbio International, Codolet, France). In brief, increasing concentrations of agonists were added to stably transfected cells in buffer in an Optiplate (PerkinElmer Life Sciences). The plates were incubated, and cells were then lysed by the addition of HTRF reagents (IP1‐D2 reagent and anti‐IP1 cryptate reagents) and diluted in lysis buffer, followed by incubation at room temperature. […] Additionally, the reference values obtained were compared to historical values obtained from the same receptor and used to validate the experimental session. […] For the new assays developed in this study (i.e., 5‐ht1E receptor), the two independent pIC50 determined must be concordant with a 1 log unit interval for the assays to be validated.

[10] = cAMP, read-out: 5‐HT1B / cAMP (converted)
[11] = IP, read-out: 5‐HT2B / IP (converted)

SMILES	Ki (5-HT1D receptor [1]) [nM]	Ki (5-ht1E receptor [2]) [nM]	IC50 (5-HT1B receptor [3]) [nM]	IC50 (5-HT1D receptor [4]) [nM]	IC50 (5-HT2B receptor [5]) [nM]	IC50 (5-ht1E receptor [6]) [nM]	EC50 (5-HT1B receptor [7]; [10]) [nM]	EC50 (5-ht1E receptor [8]) [nM]	EC50 (5-HT2B receptor [9]; [11]) [nM]	EC50 (5-HT1B receptor [7]) [nM]	EC50 (5-HT2B receptor [9]) [nM]
CNS(=O)(=O)Cc1ccc2[nH]cc(CCCN3CCN(c4ncncc4OC)CC3)c2c1 [Avitriptan fumarate]	0.776	3550	4.79	3.8	1860	7080	2.69	3020	389		
CN(C)[C@@H]1CCc2[nH]c3ccc(NC(=O)c4ccc(F)cc4)cc3c2C1 [LY344864 hydrochloride]					4900				> 10000		
N#Cc1ccc(N2CCN(C(=O)COc3ccc4[nH]cc(CCN)c4c3)CC2)cc1 [Donitriptan hydrochloride]	0.138	1700	0.513	0.661	1320	3390		> 10000		0.11	24.5
CNC1CCc2[nH]c3ccc(C(N)=O)cc3c2C1 (racemic) [Frovatriptan racemate]						> 10000		9120			
CNS(=O)(=O)CCc1ccc2[nH]cc(C3CCN(C)CC3)c2c1 [Naratriptan hydrochloride]	0.501	7.41		2.4	> 10000		8.91	17.8	> 10000		
CN1CCC[C@@H]1Cc1c[nH]c2ccc(CCS(=O)(=O)c3ccccc3)cc12 [Eletriptan hydrobromide]	0.102	61.7	1.58	0.49	724	123	10	29.5	155		
